# In paper PMC11189026 (Chemical communications (Cambridge, England), 2024):
# B1: N-to-C cyclised prochlorosin 16RGD (OaAEP1-cyclised lanthipeptide) (peptide)
# chain: cyclo(AACHNHAPSMPPSYWRGDCN)
# modifications: thioether (positions not given here); also: lanthionine linkages installed by ProcM, places not given here, thioether: lanthionine
# B2: N-to-C cyclised prochlorosin 15RGD (OaAEP1-cyclised lanthipeptide) (peptide)
# chain: cyclo(AACHNHAPSMPPSYRGDECN)
# modifications: thioether (positions not given here); also: lanthionine linkages installed by ProcM, places not given here, thioether: lanthionine
# What was measured:
# [1] = biological target: αvβ3 integrin (Homo sapiens, UniProt P05106+P06756); type: binding; conditions: ratio of Ki values, FP competition
# [2] = test system: aminopeptidase; assay: Aminopeptidase challenge of cyclised and uncyclised lanthipeptides; conditions: compared to the uncyclised compounds; Fig. S7
# [3] = biological target: αvβ3 integrin (UniProt P06756 31-1048; P05106 27-788); assay: fluorescence polarisation; competition of the lanthipeptides against fluorescently labelled c(RGDyK) for αvβ3 integrin; Ki from competition curves; conditions: both partners purified
# Chain of αvβ3 integrin (UniProt P06756 31-1048; P05106 27-788) (P06756 31-1048, chain 1 of 2): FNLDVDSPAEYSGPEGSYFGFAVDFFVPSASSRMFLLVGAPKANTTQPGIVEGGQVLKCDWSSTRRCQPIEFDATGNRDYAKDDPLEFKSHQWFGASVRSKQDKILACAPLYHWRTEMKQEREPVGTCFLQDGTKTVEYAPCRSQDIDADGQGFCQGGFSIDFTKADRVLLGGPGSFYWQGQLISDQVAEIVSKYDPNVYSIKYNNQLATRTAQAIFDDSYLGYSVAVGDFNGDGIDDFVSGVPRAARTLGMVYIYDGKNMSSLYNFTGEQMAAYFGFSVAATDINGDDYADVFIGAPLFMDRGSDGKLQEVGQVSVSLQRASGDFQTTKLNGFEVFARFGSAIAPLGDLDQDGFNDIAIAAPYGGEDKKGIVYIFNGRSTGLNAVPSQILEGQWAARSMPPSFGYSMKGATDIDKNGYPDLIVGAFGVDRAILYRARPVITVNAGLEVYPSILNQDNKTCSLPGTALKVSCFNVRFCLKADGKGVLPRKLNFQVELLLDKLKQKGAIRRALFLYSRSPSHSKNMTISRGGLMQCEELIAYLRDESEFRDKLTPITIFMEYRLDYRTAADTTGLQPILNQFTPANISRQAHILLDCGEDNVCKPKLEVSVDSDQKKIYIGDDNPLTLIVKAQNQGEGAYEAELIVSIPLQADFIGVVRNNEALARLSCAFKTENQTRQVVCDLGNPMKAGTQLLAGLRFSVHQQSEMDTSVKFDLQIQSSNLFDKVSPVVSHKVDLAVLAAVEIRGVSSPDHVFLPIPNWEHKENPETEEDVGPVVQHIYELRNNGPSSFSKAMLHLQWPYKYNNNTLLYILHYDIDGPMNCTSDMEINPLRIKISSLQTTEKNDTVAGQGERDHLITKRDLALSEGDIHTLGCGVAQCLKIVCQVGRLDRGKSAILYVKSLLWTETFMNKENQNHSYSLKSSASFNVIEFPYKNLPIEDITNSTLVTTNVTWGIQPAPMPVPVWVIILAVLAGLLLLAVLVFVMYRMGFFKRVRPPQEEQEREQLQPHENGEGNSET
# Chain of αvβ3 integrin (UniProt P06756 31-1048; P05106 27-788) (P05106 27-788, chain 2 of 2): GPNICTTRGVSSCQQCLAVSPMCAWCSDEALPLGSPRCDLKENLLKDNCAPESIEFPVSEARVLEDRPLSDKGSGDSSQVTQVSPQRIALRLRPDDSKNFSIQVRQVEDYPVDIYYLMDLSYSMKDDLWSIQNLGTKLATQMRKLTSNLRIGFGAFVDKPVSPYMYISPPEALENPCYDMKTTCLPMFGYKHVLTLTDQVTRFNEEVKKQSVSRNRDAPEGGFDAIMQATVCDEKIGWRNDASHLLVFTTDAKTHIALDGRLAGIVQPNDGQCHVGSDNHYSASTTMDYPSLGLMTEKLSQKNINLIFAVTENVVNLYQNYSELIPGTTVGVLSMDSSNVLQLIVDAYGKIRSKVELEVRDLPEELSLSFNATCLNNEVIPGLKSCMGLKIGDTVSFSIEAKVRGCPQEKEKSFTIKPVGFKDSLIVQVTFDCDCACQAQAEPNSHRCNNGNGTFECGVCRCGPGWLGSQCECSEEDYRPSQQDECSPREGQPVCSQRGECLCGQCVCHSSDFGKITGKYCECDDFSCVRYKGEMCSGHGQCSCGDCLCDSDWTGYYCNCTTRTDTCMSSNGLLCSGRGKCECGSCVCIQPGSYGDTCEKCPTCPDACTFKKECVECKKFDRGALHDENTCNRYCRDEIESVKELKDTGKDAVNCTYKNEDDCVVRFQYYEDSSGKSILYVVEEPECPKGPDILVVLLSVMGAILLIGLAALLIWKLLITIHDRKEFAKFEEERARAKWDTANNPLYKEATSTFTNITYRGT
# Chain of αvβ3 integrin (Homo sapiens, UniProt P05106+P06756) (P06756 31-992 limits assumed): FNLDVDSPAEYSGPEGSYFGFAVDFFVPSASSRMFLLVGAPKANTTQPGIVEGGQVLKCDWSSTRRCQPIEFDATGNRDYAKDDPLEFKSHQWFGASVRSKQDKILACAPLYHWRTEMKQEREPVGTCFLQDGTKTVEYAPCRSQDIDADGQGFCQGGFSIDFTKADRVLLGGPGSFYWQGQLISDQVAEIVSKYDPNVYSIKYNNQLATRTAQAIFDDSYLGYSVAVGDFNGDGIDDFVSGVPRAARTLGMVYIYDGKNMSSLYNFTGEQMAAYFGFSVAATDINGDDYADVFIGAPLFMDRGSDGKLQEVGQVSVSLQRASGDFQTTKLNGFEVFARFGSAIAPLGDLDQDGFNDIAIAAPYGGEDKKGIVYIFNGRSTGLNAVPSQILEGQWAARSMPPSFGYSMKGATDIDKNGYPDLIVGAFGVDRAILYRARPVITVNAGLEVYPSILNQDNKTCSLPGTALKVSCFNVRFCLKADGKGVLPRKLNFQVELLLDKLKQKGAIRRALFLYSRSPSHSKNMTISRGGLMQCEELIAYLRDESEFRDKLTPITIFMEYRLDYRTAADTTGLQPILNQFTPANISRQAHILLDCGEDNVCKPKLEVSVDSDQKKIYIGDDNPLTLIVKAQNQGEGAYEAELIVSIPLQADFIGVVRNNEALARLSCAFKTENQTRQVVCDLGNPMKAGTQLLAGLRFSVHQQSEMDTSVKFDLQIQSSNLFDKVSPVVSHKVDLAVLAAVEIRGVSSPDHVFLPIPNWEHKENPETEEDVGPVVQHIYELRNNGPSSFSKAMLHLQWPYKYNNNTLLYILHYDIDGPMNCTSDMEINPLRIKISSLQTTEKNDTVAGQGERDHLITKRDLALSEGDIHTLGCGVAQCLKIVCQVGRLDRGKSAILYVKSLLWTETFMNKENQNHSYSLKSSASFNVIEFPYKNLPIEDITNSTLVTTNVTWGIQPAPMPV
# Chain of αvβ3 integrin (Homo sapiens, UniProt P05106+P06756) (P05106 27-718 limits assumed): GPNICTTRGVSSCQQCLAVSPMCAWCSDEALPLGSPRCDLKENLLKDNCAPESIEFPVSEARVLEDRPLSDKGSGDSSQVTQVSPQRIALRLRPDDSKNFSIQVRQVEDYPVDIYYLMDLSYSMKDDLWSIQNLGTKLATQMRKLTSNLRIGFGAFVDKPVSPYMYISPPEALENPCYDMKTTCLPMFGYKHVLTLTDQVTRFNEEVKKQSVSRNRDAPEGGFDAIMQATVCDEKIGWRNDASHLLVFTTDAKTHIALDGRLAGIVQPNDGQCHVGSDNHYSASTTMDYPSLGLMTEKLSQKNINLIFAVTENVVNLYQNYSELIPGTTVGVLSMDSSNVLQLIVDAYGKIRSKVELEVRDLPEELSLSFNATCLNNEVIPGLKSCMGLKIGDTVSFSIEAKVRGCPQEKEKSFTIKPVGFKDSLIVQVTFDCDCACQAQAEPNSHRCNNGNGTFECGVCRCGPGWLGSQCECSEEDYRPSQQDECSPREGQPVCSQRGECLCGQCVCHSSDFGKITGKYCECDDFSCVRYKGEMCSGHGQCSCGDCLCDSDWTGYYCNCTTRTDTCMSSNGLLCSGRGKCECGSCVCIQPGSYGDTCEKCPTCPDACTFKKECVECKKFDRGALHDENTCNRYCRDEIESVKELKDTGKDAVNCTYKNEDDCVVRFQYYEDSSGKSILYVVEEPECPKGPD
Molecule,"fold higher affinity for αvβ3 integrin, N-to-C cyclised vs noncyclised [1] [fold]",resistance to aminopeptidase [2],Ki [3] [µM]
CSCC[C@@H]1NC(=O)[C@H]2CSC[C@H](NC(=O)[C@H](C)NC(=O)[C@H](C)NC(=O)[C@H](CC(N)=O)NC(=O)[C@@H]3CSC[C@@H](NC(=O)[C@@H]4CCCN4C(=O)[C@@H]4CCCN4C1=O)C(=O)N[C@@H](Cc1ccc(O)cc1)C(=O)N[C@@H](CCCNC(=N)N)C(=O)NCC(=O)N[C@@H](CC(=O)O)C(=O)N[C@@H](CCC(=O)O)C(=O)N3)C(=O)N[C@@H](Cc1c[nH]cn1)C(=O)N[C@@H](CC(N)=O)C(=O)N[C@@H](Cc1c[nH]cn1)C(=O)N[C@@H](C)C(=O)N1CCC[C@H]1C(=O)N2 [c15RGD],4,resistant to aminopeptidase,
CSCC[C@@H]1NC(=O)[C@H]2CSC[C@H](NC(=O)[C@H](C)NC(=O)[C@H](C)NC(=O)[C@H](CC(N)=O)NC(=O)[C@@H]3CSC[C@@H](NC(=O)[C@@H]4CCCN4C(=O)[C@@H]4CCCN4C1=O)C(=O)N[C@@H](Cc1ccc(O)cc1)C(=O)N[C@@H](Cc1c[nH]c4ccccc14)C(=O)N[C@@H](CCCNC(=N)N)C(=O)NCC(=O)N[C@@H](CC(=O)O)C(=O)N3)C(=O)N[C@@H](Cc1c[nH]cn1)C(=O)N[C@@H](CC(N)=O)C(=O)N[C@@H](Cc1c[nH]cn1)C(=O)N[C@@H](C)C(=O)N1CCC[C@H]1C(=O)N2 [c16RGD],,resistant to aminopeptidase,
B1,,,0.28 ± 0.03
B2,,,7.7 ± 1.3
